{"source": "patent US4749710A", "about": "“Immunosuppressive agents” (priority 1985, dated 1988)", "key": {"[1]": {"test_system": "murine cytotoxic T-lymphocyte responses", "experiment": "cells", "type": "cell-based", "settings": "for CTL activity (% specific ^51 Cr release): 90:1 effector to target", "text": "Immunosuppressive Activity of Vitamin D compounds on cytotoxic T lymphocyte Responses-General Test Description\nCytotoxic thymus-derived lymphocytes (CTL) constitute an important aspect of immune function and, as a result, play a key role in the rejection of grafted cells, tissues and organs. It is, therefore, essential to suppress CTL generation in a clinical situation in which CTL function is antithetical to the desired outcome as, for example, in transplantation. Cytotoxic T-lymphocytes have been studied for several years by many investigators and methods to evaluate CTL responses in vitro are well established.\nAs described below, CTL responses as affected by Vitamin D derivatives, were studied in vitro using cells from lab animals and human volunteers. Cytotoxic T-lymphocytes were generated from responder lymphoid cells in tissue culture medium during an incubation period of 6 days by exposure to foreign stimulator cells, i.e. from a genetically disparate source. A portion of the resultant effector cells were CTL capable of killing fresh cells related to the stimulator cells employed in the 6 day culture. To detect killing of cells by CTL, fresh target cells were incubated in excess ^51 chromium (as sodium chromate) until they were extensively labelled. Since target cells will retain the internalized radioisotope as long as they are viable but release the label when they are killed, CTL activity was assessed by quantitating the chromium released from target cells after a 4 or 18 hour incubation with CTL. Immunosuppression produced by Vitamin D derivatives was gauged as the ability to inhibit CTL responses during the initial incubation period relative to control cultures to which no Vitamin D derivative was added.\nFemale BALB/c By and C57BL/6 mice were obtained from Jackson Laboratories and were used between 8 and 10 weeks of age. Mice were given food and water ad libitum and were kept in a 12 hour light and 12 hour dark cycle.\nFor murine cultures, minimal essential medium with Hank's salts was supplemented to 1 millimolar with sodium pyruvate, to 0.1 millimolar with nonessential amino acids, to 2 millimolar with 1-glutamine, to 10% (v/v) with heat-inactivated fetal bovine serum, to 50 micrograms per ml with gentamicin, and to 1000 milligrams per liter with sodium bicarbonate and was used as tissue culture medium.\nStock solutions of Vitamin D derivatives were made in argon-saturated ethanol at a final concentration of 1×10^-2 molar, were covered with argon before sealing and were stored at -20° C. in the dark. Reduced lighting conditions were always employed when working with compounds. Compounds were diluted in tissue culture medium to 1×10^-4 molar and all subsequent dilutions were done in tissue culture medium containing 1% v/v ethanol. The final dilution into culture vessels was 1:10 thus keeping the vehicle concentration constant at 0.1% while varying the concentration of compound as tabulated in the results. For purposes of control, mixed leukocyte cultures were incubated in medium only (medium control) or in medium containing a final concentration of 0.1% ethanol (vehicle control).\nMurine cytotoxic T-lymphocytes were generated in mixed leukocyte cultures by known methods. Specifically, single cell suspensions were prepared from spleens by gentle disruption in balanced salt solution (Hanks' balanced salt solution supplemented to 10%, v/v, with fetal bovine serum). After sedimentation on ice to remove particulate debris, cell suspensions were centrifuged at 400xg and were resuspended in fresh balanced salt solution. Cells to be used as stimulator cells were precluded from proliferating or generating cytotoxic T-lymphocytes by exposure to 1000 rads of gamma irradiation using a ^137 cesium source. […]"}, "[2]": {"test_system": "cytotoxic T-lymphocyte responses (P815 tumor cells)", "experiment": "Suppression of murine CTL responses in vivo (mice immunized with P815 cells)", "design": "species or system C57BL/6 mice", "settings": "for CTL activity (% specific ^51 Cr release): day 10; for CTL activity (% specific ^51 Cr release) / Inhibition of CTL activity (%): effector to target 10:1", "method": "General description. The general test considerations are similar to those previously described for the in vitro murine experiments except that stimulator cells and experimental compound were administered to intact laboratory mice. The impact of compound on CTL responses generated in vivo was determined by comparing the resultant CTL activity from test mice to the CTL activity generated in mice which received vehicle only.\nFemale C57BL/6 mice were used between the ages of 9-12 weeks. Mice were given food and water ad libitum and were kept in a 12-hour light and 12-hour dark cycle.\nA balanced salt solution (BSS) was prepared as described for tissue culture medium in the in vitro murine experiments but was additionally supplemented to 0.01 molar with HEPES buffer.\nThe compound, 22,23-dehydro-1α,25S,26-trihydroxycholecalciferol was dissolved in dimethylsulfoxide at final concentrations of 2 or 4 mg per ml. When working with vitamin D compounds, conditions of reduced lighting were employed.\nIn vivo regimens. Mice were apportioned at 4 per group and were inoculated intraperitoneally with 3×10^6 allogeneic P815 tumor cells and the resulting CTL activity was assessed 10 days later. Mice were treated by the intraperitoneal route with 25 microliters of test compound dissolved in dimethylsulfoxide or with dimethylsulfoxide only (vehicle control). In test 1, mice were given daily treatments of 50 micrograms of 22,23-dehydro-1α,25S,26-trihydroxycholecalciferol per day starting one day before immunization and continuing until the day before assay. In test 2, mice were treated with 100 micrograms of 22,23-dehydro-1α,25S,26-trihydroxycholecalciferol only twice: on the day before immunization and on the day of immunization.\nAssay for CTL activity. Ten days after immunization of mice with P815 cells, single spleen cell suspensions were prepared by passage of spleens through a steel mesh into BSS and were subsequently washed twice with BSS. Further manipulations of spleen cells, labeling of P815 target cells with ^51 Cr, mechanics of the assay, and the calculation of results from the CTL assay are the same as described earlier for the in vitro murine CTL tests. Cytotoxic T lymphocyte activity was determined individually on spleen cells from each animal in each group and the results are expressed as the mean CTL activity (as percent specific ^51 Cr release) of each group±the standard deviation.\nStatistical analysis. A student's t-test was to compare the vehicle-treatedgroup to the test group in each test and the resultant p values are shown."}}}
{"smiles": "C=C1/C(=C\\C=C2/CCC[C@]3(C)[C@@H]([C@H](C)C[C@H](O)CC(C)(C)O)CC[C@@H]23)C[C@@H](O)C[C@@H]1O", "note": "[1α,23S,25-(OH)3 --D3, 1α,23S,25-Trihydroxycholecalciferol]", "values": [{"measurement": "inhibition at 10 µM", "setting": "[1]; Mus musculus, T-lymphocyte, Table I, 1 × 10^-5 molar, vs vehicle control, read-out: Inhibition of CTL activity (%)", "result": 77, "unit": "%"}, {"measurement": "inhibition at 1 µM", "setting": "[1]; Mus musculus, T-lymphocyte, Table I, 1 × 10^-6 molar, vs vehicle control, read-out: Inhibition of CTL activity (%)", "result": 59, "unit": "%"}, {"measurement": "inhibition at 0.1 µM", "setting": "[1]; Mus musculus, T-lymphocyte, Table I, 1 × 10^-7 molar, vs vehicle control, read-out: Inhibition of CTL activity (%)", "result": 43, "unit": "%"}, {"measurement": "inhibition at 0.01 µM", "setting": "[1]; Mus musculus, T-lymphocyte, Table I, 1 × 10^-8 molar, vs vehicle control, read-out: Inhibition of CTL activity (%)", "result": 18, "unit": "%"}, {"measurement": "inhibition at 0.001 µM", "setting": "[1]; Mus musculus, T-lymphocyte, Table I, 1 × 10^-9 molar, vs vehicle control, read-out: Inhibition of CTL activity (%)", "result": 0, "unit": "%"}, {"measurement": "CTL activity (% specific ^51 Cr release)", "setting": "[1]; Table I, 1 × 10^-5 molar", "result": 10, "unit": "% specific ^51 Cr release"}, {"measurement": "CTL activity (% specific ^51 Cr release)", "setting": "[1]; Table I, 1 × 10^-6 molar", "result": 18, "unit": "% specific ^51 Cr release"}, {"measurement": "CTL activity (% specific ^51 Cr release)", "setting": "[1]; Table I, 1 × 10^-7 molar", "result": 25, "unit": "% specific ^51 Cr release"}, {"measurement": "CTL activity (% specific ^51 Cr release)", "setting": "[1]; Table I, 1 × 10^-8 molar", "result": 36, "unit": "% specific ^51 Cr release"}, {"measurement": "CTL activity (% specific ^51 Cr release)", "setting": "[1]; Table I, 1 × 10^-9 molar", "result": 45, "unit": "% specific ^51 Cr release"}, {"measurement": "suppression of murine cytotoxic T-lymphocyte responses (in words)", "setting": "[1]; in vitro", "result": "suppress murine cytotoxic T-lymphocyte responses"}]}
{"smiles": "C=C1/C(=C\\C=C2/CCC[C@]3(C)[C@@H]([C@H](C)C=CC[C@](C)(O)CO)CC[C@@H]23)C[C@@H](O)C[C@@H]1O", "note": "[1α,25S,26-(OH)3 --Δ^22 -D3, 1α,25S,26-Trihydroxy-Δ^22-cholecalciferol]", "values": [{"measurement": "reduction in CTL activity in mice (in words)", "setting": "[2]; both tests", "result": "statistically significant reduction in CTL activity"}, {"measurement": "CTL activity (% specific ^51 Cr release)", "setting": "[2]; test 1, 50 ug/dose intraperitoneal daily", "result": "13 ± 4", "unit": "% specific ^51 Cr release"}, {"measurement": "Inhibition of CTL activity (%)", "setting": "[2]; test 1, 50 ug/dose intraperitoneal daily, p < 0.05", "result": 58, "unit": "%"}, {"measurement": "CTL activity (% specific ^51 Cr release)", "setting": "[2]; test 2, 100 ug/dose intraperitoneal, twice", "result": "14 ± 2", "unit": "% specific ^51 Cr release"}, {"measurement": "Inhibition of CTL activity (%)", "setting": "[2]; test 2, 100 ug/dose intraperitoneal, twice, p < 0.01", "result": 53, "unit": "%"}]}
